Test results published in article PMC10584170, “Machine learning-based phenotypic imaging to characterise the targetable biology of Plasmodium falciparum male gametocytes for the development of transmission-blocking antimalarials” (PLOS Pathogens, 2023).

How the values were obtained:
[1] = test system: P. falciparum male gametocytes; test: P. falciparum Dual Gamete Formation Assay (PfDGFA), male readout (exflagellation); format: cell-based, Plasmodium falciparum NF54; conditions: for Average inhibition male (%): average of replicates; for % inhibition male (individual replicates) R1: replicate R1; for % inhibition male (individual replicates) R3: replicate R3; for % inhibition male (individual replicates) R4: replicate R4; for Activity: hit = >50% inhibition in male or female readout in at least 3 replicates, 0 = no class assigned
Procedure: (§1) P. falciparum NF54 (originally isolated from an imported malaria case in the Netherlands in the 1980s; BEI Resources, cat. No. MRA-1000) strain asexual parasites were maintained between 0.3–5% parasitaemia by regular passage in complete culture medium (RPMI supplemented with 25 mM HEPES, 50 μg ml^−1 hypoxanthine, 4.8 g l^−1 NaHCO3, 2mM L-glutamine, 5% pooled type AB serum, 0.5% Albumax II (Gibco)) at 4% haematocrit in washed whole blood (National Blood and Transfusion Service or Centro de Transfusiones de la Comunidad de Madrid CTCM) under a 1% O2/3% CO2/96% N2 environment. Gametocytes were induced by seeding culture flasks at 2% parasitaemia/4% haematocrit and subjecting them to daily medium changes for 14 days whilst maintaining a temperature of 37°C at all times. On Day 14, the maturity of gametocytes was assessed by quantifying male gametogenesis (exflagellation). A 20 μl sample of gametocyte culture was mixed with equal volume of ookinete medium (complete culture medium supplemented with 0.1 μM xanthurenic acid) at room temperature and transferred to a haemocytometer. After 20 min at room temperature, exflagellation was accurately quantified as described in Delves et al. 2016 [17].
(§2) The Pf DGFA was performed as described in Delves et al. 2016 [17]. […] Plates were then incubated for 24 h at 37°C in a humidified box under a 1% O2/3% CO2/96% N2 gas mix. Gametogenesis was triggered by addition of 10 μl per well of ookinete medium + 0.27 μg ml^-1 Cy3-labelled anti-Pfs25 antibody. Plates were incubated on a metal block at 4°C for 4 min to ensure even cooling, then 28°C for a further 4 min. Exflagellation was recorded by capturing 10 frames over 1 s under brightfield illumination using a x4 objective with a 1.5x zoom (effectively x6) attached to an automated Nikon Ti fluorescence microscope. After recording exflagellation, plates were incubated for a further 24 h in the dark at 28°C to ensure maximal expression of Pfs25 by female gametes. The plates were then returned to the microscope and female gametes imaged at x6 using fluorescence microscopy.
(§3) Exflagellation centres and female gametes were quantified using custom image analysis pipelines developed within ICY Bioimage Analysis (https://icy.bioimageanalysis.org/).

[2] = test system: P. falciparum female gametocytes; test: P. falciparum Dual Gamete Formation Assay (PfDGFA), female readout (Pfs25-positive female gametes); format: cell-based, Plasmodium falciparum NF54; conditions: for Average inhibition female (%): average of replicates; for % inhibition female (individual replicates) R1: replicate R1; for % inhibition female (individual replicates) R3: replicate R3; for % inhibition female (individual replicates) R4: replicate R4
Procedure: as §1, §2, §3

[3] = 2µM, 24h preincubation with gametocytes prior to induction of gametogenesis
[4] = 2µM, 24h preincubation, hits selected on >50% inhibition in the male readout across replicates
[5] = PfDGFA at 2µM, 24h preincubation
[6] = 2µM, 24h preincubation, hits selected on >50% inhibition in the female readout across replicates
[7] = PfDGFA at 2µM, 24h preincubation with gametocytes
[8] = PfDGFA at 2µM, 24h preincubation with gametocytes prior to induction of gametogenesis

| SMILES | Average inhibition male (%) [1, 3] | % inhibition male (individual replicates) R1 [1, 3] | % inhibition male (individual replicates) R3 [1, 3] | % inhibition male (individual replicates) R4 [1, 3] | HitlevelM [1, 4] | Activity [1, 5] | Average inhibition female (%) [2, 3] | % inhibition female (individual replicates) R1 [2, 3] | % inhibition female (individual replicates) R3 [2, 3] | % inhibition female (individual replicates) R4 [2, 3] | HitlevelF [2, 6] | % inhibition male (individual replicates) R1 [1, 8] | % inhibition male (individual replicates) R3 [1, 8] | % inhibition male (individual replicates) R4 [1, 8] | Average inhibition male (%) [1, 5] | % inhibition female (individual replicates) R1 [2, 8] | % inhibition female (individual replicates) R3 [2, 8] | % inhibition female (individual replicates) R4 [2, 8] | Average inhibition female (%) [2, 5] | further results |
| --- | --- | --- | --- | --- | --- | --- | --- | --- | --- | --- | --- | --- | --- | --- | --- | --- | --- | --- | --- | --- |
| COc1ccc(CCNCCCCCCNCCCc2ccc(Cl)cc2)cc1OC.Cl [TCMDC-131280] | 28.8% | 30.2% | 15.3% | 32.2% | 0 | 0 | 17.7% | 16.6% | 13.1% | 24.0% | 0 |  |  |  |  |  |  |  |  |  |
| Br.CCCCc1ccc(CCNCCCCCCNCCc2ccc(O)c(O)c2)cc1 [TCMDC-131281] |  |  |  |  |  |  |  |  |  |  |  |  |  |  |  |  |  |  |  | Average inhibition male (%) [1, 7]: 80.5%; % inhibition male (individual replicates) R1 [1, 7]: 68.8%; % inhibition male (individual replicates) R4 [1, 7]: 77.5%; HitlevelM ([1]; number of replicates with >50% inhibition in the male readout, 2µM): 3; Average inhibition female (%) [2, 7]: 39.8%; % inhibition female (individual replicates) R1 [2, 7]: 30.3%; % inhibition female (individual replicates) R3 [2, 7]: 35.5%; % inhibition female (individual replicates) R4 [2, 7]: 31.1%; HitlevelF ([2]; number of replicates with >50% inhibition in the female readout, 2µM): 1 |
| COc1cccc(CCNCCCCCCNCCc2ccc(Cl)cc2)c1.Cl [TCMDC-131284] | 40.5% | 42.7% | 17.7% | 36.9% | 1 | 0 | 15.8% | 18.4% | 6.6% | 6.5% | 0 |  |  |  |  |  |  |  |  |  |
| Br.Oc1cccc(CCNCCCCCCNCCc2ccc(Cl)cc2)c1 [TCMDC-131285] | 17.5% | 13.8% | 6.4% | 28.9% | 0 | 0 | 14.3% | 12.4% | 15.9% | 17.3% | 0 |  |  |  |  |  |  |  |  |  |
| Cl.NC1=NC(CCc2ccccc2)N(c2ccc(Cl)cc2)C(N)=N1 (centres unmarked) [TCMDC-131290] |  |  |  |  |  |  |  |  |  |  |  | -21.3% | -9.1% | -39.8% | -16.9% | 1.0% | -2.9% | -19.8% | -10.7% |  |
| Br.CCCC1N=C(N)N=C(N)N1c1ccc(CC)cc1 (centres unmarked) [TCMDC-131300] | -2.2% | 7.1% | 2.2% | -35.1% | 0 | 0 | 5.7% | 16.1% | 10.4% | 12.0% | 0 |  |  |  |  |  |  |  |  |  |
| CNCCCCCCOc1ccc(CC(C)NCC(O)c2cccc(C(F)(F)F)c2)cc1.Cl (centres unmarked) [TCMDC-131523] |  |  |  |  |  |  |  |  |  |  |  | 2.8% | -13.3% | 4.2% | -0.8% | 10.7% | -17.9% | 1.1% | -0.7% |  |
| C[C@H](Cc1ccc(OCCNC[C@H](O)c2cccc(Cl)c2)cc1)NC[C@H](O)c1ccc(Cl)c(Cl)c1.O [TCMDC-131547] | 22.6% | 62.1% | 23.6% | 9.5% | 1 | 0 | 17.7% | 20.3% | 33.9% | 3.3% | 0 |  |  |  |  |  |  |  |  |  |
| C[C@H](Cc1ccc(S(=O)(=O)c2ccc(C[C@@H](C)NC[C@H](O)c3cccc(Cl)c3)cc2)cc1)NC[C@H](O)c1cccc(Cl)c1.Cl [TCMDC-131561] | 47.9% | 47.0% | 11.1% | 74.2% |  |  | 28.9% | 27.9% | 9.1% | 30.5% |  |  |  |  |  |  |  |  |  | HitlevelM ([1]; 2µM, 24h preincubation, number of replicates with >50% inhibition in the male readout): 2; HitlevelF ([2]; 2µM, 24h preincubation, number of replicates with >50% inhibition in the female readout): 0 |
| CC1(C)N=C(NC(=O)c2ccc([N+](=O)[O-])cc2)N=C(N)N1OCc1ccc2ccccc2c1 [TCMDC-131580] |  |  |  |  |  |  |  |  |  |  |  | 21.0% | -18.0% | -29.1% | -7.9% | 12.5% | -19.7% | 0.76% | 3.4% |  |
| CC1(C)N=C(N)N=C(N)N1OCc1cc(Cl)c(CON2C(N)=NC(N)=NC2(C)C)cc1Cl [TCMDC-131624] |  |  |  |  |  |  |  |  |  |  |  | 2.1% |  | -25.6% | -4.5% | 0.3% | 11.6% | 5.2% | 2.9% |  |
| Cc1ccc(CON2C(N)=NC(N)=NC2(C)C)c(Cl)c1.Cc1ccc(CON2C(N)=NC(N)=NC2(C)C)cc1Cl [TCMDC-131625] |  |  |  |  |  |  |  |  |  |  |  | 26.3% | -30.0% | -18.5% | -5.6% | -4.8% | -23.0% | 21.6% | -0.55% |  |
